Reference: ChEMBL document CHEMBL4507278 (2021)

How the values were obtained:
[1] = tested on: Tyrosine-protein kinase ABL1 (Homo sapiens), P00519 [F317L]; conditions: Compound concentration 1000.0 nM
[2] = target: Aurora kinase A (Homo sapiens) (UniProt O14965); conditions: Compound concentration 1000.0 nM
[3] = target: Serine/threonine-protein kinase BRSK1 (Homo sapiens) (UniProt Q8TDC3); conditions: Compound concentration 1000.0 nM
[4] = target: Cyclin-dependent kinase 9 (Homo sapiens) (UniProt P50750); conditions: Compound concentration 1000.0 nM
[5] = target: Ephrin type-B receptor 2 (Homo sapiens) (UniProt P29323); conditions: Compound concentration 1000.0 nM
[6] = target: Ephrin type-B receptor 4 (Homo sapiens) (UniProt P54760); conditions: Compound concentration 1000.0 nM
[7] = tested on: Receptor-type tyrosine-protein kinase FLT3 (Homo sapiens), P36888 [D835V]; conditions: Compound concentration 1000.0 nM
[8] = target: Vascular endothelial growth factor receptor 3 (Homo sapiens) (UniProt P35916); conditions: Compound concentration 1000.0 nM
[9] = target: Tyrosine-protein kinase FRK (Homo sapiens) (UniProt P42685); conditions: Compound concentration 1000.0 nM
[10] = target: Homeodomain-interacting protein kinase 4 (Homo sapiens) (UniProt Q8NE63); conditions: Compound concentration 1000.0 nM
Sequence of Homeodomain-interacting protein kinase 4 (Homo sapiens) (Q8NE63 whole entry): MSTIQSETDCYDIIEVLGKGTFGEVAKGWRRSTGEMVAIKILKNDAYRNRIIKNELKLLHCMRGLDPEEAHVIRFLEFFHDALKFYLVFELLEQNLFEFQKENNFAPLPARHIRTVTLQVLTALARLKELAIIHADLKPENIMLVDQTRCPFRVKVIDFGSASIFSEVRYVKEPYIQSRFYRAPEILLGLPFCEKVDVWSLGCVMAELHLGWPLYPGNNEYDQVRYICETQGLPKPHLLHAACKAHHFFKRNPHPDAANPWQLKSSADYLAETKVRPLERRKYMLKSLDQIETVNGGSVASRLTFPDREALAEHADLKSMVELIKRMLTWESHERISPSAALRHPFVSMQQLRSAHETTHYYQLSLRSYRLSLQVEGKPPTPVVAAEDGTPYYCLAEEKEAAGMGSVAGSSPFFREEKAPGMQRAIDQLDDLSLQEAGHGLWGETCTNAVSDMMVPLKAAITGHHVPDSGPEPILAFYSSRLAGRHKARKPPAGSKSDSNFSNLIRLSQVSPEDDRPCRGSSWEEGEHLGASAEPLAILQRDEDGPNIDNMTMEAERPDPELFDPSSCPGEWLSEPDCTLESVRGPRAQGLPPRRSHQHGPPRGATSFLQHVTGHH

[11] = target: Inhibitor of nuclear factor kappa-B kinase subunit alpha (Homo sapiens) (UniProt O15111); conditions: Compound concentration 1000.0 nM
Sequence of Inhibitor of nuclear factor kappa-B kinase subunit alpha (Homo sapiens) (O15111 whole entry, the tested form may be a part): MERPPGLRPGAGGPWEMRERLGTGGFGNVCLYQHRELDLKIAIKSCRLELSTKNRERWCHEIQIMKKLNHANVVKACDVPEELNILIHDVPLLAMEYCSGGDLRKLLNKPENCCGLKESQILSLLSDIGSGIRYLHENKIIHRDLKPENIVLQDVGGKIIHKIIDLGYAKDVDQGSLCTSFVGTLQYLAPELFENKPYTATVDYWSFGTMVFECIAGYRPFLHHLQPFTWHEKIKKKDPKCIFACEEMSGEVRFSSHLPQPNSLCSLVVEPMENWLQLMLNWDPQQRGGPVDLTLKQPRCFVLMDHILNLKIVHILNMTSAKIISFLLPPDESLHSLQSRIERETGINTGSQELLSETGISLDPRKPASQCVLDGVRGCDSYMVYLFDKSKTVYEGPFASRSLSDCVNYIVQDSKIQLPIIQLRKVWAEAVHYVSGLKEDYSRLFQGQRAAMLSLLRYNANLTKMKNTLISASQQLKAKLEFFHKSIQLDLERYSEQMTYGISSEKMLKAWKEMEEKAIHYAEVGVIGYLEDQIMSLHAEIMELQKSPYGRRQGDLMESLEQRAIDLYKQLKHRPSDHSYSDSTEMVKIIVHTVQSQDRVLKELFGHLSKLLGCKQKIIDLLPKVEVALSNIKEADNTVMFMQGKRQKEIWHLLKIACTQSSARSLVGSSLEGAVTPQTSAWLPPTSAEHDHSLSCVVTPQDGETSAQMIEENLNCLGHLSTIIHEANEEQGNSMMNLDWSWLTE

[12] = target: LIM domain kinase 1 (Homo sapiens) (UniProt P53667); conditions: Compound concentration 1000.0 nM
[13] = target: Serine/threonine-protein kinase STK11 (Homo sapiens) (UniProt Q15831); conditions: Compound concentration 1000.0 nM
[14] = target: MAP/microtubule affinity-regulating kinase 4 (Homo sapiens) (UniProt Q96L34); conditions: Compound concentration 1000.0 nM
[15] = target: Mitogen-activated protein kinase kinase kinase 9 (Homo sapiens) (UniProt P80192); conditions: Compound concentration 1000.0 nM
[16] = target: Mitogen-activated protein kinase kinase kinase 10 (Homo sapiens) (UniProt Q02779); conditions: Compound concentration 1000.0 nM
[17] = target: Serine/threonine-protein kinase 38-like (Homo sapiens) (UniProt Q9Y2H1); conditions: Compound concentration 1000.0 nM
[18] = target: Serine/threonine-protein kinase Nek10 (Homo sapiens) (UniProt Q6ZWH5); conditions: Compound concentration 1000.0 nM
[19] = target: Serine/threonine-protein kinase NLK (Homo sapiens) (UniProt Q9UBE8); conditions: Compound concentration 1000.0 nM
Sequence of Serine/threonine-protein kinase NLK (Homo sapiens) (Q9UBE8 whole entry): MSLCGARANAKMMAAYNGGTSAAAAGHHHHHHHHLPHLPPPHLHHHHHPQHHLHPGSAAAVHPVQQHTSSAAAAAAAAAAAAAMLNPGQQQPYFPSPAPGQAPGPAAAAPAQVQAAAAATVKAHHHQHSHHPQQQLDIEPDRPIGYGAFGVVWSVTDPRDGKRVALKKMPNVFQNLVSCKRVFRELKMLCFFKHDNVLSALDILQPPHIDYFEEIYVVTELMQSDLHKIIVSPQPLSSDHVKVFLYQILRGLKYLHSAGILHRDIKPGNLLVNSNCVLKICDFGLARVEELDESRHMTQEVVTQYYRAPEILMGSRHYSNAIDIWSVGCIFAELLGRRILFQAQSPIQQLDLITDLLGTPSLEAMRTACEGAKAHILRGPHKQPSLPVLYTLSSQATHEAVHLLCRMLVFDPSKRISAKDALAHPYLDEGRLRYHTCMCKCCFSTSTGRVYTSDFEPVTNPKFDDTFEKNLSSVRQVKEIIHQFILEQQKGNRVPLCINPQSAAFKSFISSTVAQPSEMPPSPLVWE

[20] = target: Serine/threonine-protein kinase PAK 3 (Homo sapiens) (UniProt O75914); conditions: Compound concentration 1000.0 nM
[21] = target: 3-phosphoinositide-dependent protein kinase 1 (Homo sapiens) (UniProt O15530); conditions: Compound concentration 1000.0 nM
[22] = target: Serine/threonine-protein kinase pim-3 (Homo sapiens) (UniProt Q86V86); conditions: Compound concentration 1000.0 nM
[23] = target: Serine/threonine-protein kinase RIO3 (Homo sapiens) (UniProt O14730); conditions: Compound concentration 1000.0 nM
[24] = target: Dual serine/threonine and tyrosine protein kinase (Homo sapiens) (UniProt Q6XUX3); conditions: Compound concentration 1000.0 nM
[25] = target: Ribosomal protein S6 kinase alpha-4 (Homo sapiens) (UniProt O75676); conditions: Compound concentration 1000.0 nM
Sequence of Ribosomal protein S6 kinase alpha-4 (Homo sapiens) (O75676 whole entry, looked up): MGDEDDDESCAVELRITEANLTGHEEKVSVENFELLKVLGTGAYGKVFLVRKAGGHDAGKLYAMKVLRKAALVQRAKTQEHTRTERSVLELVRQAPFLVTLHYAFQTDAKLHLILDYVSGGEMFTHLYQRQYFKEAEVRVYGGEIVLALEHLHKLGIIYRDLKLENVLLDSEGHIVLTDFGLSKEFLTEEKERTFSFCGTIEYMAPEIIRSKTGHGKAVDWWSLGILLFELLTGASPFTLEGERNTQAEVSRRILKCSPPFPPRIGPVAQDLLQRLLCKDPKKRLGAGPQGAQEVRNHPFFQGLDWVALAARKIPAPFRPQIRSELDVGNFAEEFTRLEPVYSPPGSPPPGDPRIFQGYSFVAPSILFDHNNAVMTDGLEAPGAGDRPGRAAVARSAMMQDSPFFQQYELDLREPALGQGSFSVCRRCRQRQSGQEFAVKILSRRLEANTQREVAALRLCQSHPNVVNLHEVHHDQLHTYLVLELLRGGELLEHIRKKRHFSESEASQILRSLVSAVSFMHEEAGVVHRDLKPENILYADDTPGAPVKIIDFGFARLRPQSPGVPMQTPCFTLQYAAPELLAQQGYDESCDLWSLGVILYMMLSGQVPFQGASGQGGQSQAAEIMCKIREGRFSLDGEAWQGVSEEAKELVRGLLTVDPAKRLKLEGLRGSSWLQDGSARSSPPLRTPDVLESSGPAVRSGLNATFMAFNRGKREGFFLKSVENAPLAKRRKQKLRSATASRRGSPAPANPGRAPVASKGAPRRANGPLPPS

[26] = target: Ribosomal protein S6 kinase alpha-1 (Homo sapiens) (UniProt Q15418); conditions: Compound concentration 1000.0 nM
[27] = target: Serine/threonine-protein kinase Sgk3 (Homo sapiens) (UniProt Q96BR1); conditions: Compound concentration 1000.0 nM
[28] = target: SRSF protein kinase 1 (Homo sapiens) (UniProt Q96SB4); conditions: Compound concentration 1000.0 nM
[29] = target: Serine/threonine-protein kinase TBK1 (Homo sapiens) (UniProt Q9UHD2); conditions: Compound concentration 1000.0 nM
[30] = target: Dual specificity testis-specific protein kinase 1 (Homo sapiens) (UniProt Q15569); conditions: Compound concentration 1000.0 nM
Sequence of Dual specificity testis-specific protein kinase 1 (Homo sapiens) (Q15569 whole entry, looked up): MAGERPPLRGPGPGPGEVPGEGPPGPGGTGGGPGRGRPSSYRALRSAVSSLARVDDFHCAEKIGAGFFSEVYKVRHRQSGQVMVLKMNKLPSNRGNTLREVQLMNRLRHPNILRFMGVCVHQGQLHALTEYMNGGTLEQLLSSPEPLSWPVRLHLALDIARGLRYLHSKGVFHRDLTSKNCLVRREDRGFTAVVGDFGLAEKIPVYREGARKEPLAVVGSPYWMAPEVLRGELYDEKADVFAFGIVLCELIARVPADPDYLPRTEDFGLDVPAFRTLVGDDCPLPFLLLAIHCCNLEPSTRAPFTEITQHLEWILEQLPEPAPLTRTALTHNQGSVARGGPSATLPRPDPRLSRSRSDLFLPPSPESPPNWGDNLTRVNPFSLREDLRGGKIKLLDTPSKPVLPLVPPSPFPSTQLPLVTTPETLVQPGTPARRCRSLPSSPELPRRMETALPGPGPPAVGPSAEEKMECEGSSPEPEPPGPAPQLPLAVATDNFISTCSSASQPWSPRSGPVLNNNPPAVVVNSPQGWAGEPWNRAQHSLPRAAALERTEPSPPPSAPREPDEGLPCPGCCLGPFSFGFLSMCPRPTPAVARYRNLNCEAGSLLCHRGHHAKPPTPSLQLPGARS

[31] = target: Vascular endothelial growth factor receptor 2 (Homo sapiens) (UniProt P35968); conditions: Compound concentration 1000.0 nM
[32] = target: Serine/threonine-protein kinase WNK4 (Homo sapiens) (UniProt Q96J92); conditions: Compound concentration 1000.0 nM
[33] = target: Tyrosine-protein kinase Yes (Homo sapiens) (UniProt P07947); conditions: Compound concentration 1000.0 nM
[34] = target: Serine/threonine-protein kinase 25 (Homo sapiens) (UniProt O00506); conditions: Compound concentration 1000.0 nM
[35] = target: T1, 5-hydroxytryptamine receptor 3A (Homo sapiens) (UniProt P46098); conditions: Compound concentration 10.0 uM
T1 sequence (whole entry): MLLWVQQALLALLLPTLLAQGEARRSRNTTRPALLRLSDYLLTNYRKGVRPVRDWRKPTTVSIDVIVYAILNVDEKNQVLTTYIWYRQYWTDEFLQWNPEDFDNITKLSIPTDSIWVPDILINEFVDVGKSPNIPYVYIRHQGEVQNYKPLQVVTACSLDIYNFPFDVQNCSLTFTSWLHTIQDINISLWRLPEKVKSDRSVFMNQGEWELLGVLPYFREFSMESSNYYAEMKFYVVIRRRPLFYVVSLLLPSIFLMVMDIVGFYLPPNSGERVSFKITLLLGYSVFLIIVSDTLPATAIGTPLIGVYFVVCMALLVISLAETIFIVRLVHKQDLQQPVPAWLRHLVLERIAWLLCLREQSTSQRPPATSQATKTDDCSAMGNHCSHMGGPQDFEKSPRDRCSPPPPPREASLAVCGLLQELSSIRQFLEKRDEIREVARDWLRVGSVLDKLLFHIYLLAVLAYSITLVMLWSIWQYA

[36] = target: Sodium-dependent serotonin transporter (Homo sapiens) (UniProt P31645); conditions: Compound concentration 10.0 uM
Sequence of Sodium-dependent serotonin transporter (Homo sapiens) (P31645 whole entry, looked up): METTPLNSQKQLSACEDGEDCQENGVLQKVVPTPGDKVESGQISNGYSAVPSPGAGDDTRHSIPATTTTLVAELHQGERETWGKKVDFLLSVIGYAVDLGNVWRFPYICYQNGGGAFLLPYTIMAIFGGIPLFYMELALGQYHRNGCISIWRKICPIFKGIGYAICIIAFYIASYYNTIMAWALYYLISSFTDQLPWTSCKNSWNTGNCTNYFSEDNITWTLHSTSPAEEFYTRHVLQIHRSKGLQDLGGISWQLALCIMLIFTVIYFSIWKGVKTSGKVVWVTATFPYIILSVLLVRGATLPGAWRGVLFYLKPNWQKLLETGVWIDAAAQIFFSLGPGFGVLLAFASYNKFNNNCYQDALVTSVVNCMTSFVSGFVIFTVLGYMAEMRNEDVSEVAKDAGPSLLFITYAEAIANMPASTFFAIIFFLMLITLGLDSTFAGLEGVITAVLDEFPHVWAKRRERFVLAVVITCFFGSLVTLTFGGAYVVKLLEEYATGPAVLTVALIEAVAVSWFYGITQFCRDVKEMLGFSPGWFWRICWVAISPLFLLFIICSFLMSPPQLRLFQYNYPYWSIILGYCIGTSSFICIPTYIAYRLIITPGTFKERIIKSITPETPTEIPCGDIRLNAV

[37] = target: Histamine H1 receptor (Homo sapiens) (UniProt P35367); conditions: Compound concentration 10.0 uM
[38] = target: Beta-2 adrenergic receptor (Homo sapiens) (UniProt P07550); conditions: Compound concentration 10.0 uM
[39] = target: Muscarinic acetylcholine receptor M5 (Homo sapiens) (UniProt P08912); conditions: Compound concentration 10.0 uM
Sequence of Muscarinic acetylcholine receptor M5 (Homo sapiens) (P08912 whole entry): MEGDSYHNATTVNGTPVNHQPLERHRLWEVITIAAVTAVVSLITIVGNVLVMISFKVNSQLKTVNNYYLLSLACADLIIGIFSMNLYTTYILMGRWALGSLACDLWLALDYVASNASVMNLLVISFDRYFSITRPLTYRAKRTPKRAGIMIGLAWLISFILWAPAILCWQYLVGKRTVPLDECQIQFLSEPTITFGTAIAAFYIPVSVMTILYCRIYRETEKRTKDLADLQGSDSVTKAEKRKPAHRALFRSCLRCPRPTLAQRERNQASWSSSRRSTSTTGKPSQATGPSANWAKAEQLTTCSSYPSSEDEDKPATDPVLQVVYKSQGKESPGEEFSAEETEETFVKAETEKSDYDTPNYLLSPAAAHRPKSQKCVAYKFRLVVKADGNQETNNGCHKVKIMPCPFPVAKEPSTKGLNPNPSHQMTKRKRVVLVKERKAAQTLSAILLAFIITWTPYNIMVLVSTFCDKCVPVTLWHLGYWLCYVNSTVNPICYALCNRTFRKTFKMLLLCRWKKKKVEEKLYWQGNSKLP

Structure (SMILES)	residual activity [1]	residual activity [2]	residual activity [3]	residual activity [4]	residual activity [5]	residual activity [6]	residual activity [7]	residual activity [8]	residual activity [9]	residual activity [10]	residual activity [11]	residual activity [12]	residual activity [13]	residual activity [14]	residual activity [15]	residual activity [16]	residual activity [17]	residual activity [18]	residual activity [19]	residual activity [20]	other results
CS(=O)(=O)NCC[C@H](NC(=O)c1cncc2c1cnn2-c1ccc(F)cc1)c1ccnc(S(C)(=O)=O)c1 [BI 9307]	69%	100%	99%	100%	92%	100%	100%	100%	100%	100%	100%	100%	100%	78%	97%	75%	50%	100%	100%	100%	residual activity [21]: 100%; residual activity [22]: 100%; residual activity [23]: 100%; residual activity [24]: 98%; residual activity [25]: 85%; residual activity [26]: 100%; residual activity [27]: 100%; residual activity [28]: 83%; residual activity [29]: 94%; residual activity [30]: 100%; residual activity [31]: 100%; residual activity [32]: 100%; residual activity [33]: 100%; residual activity [34]: 78%; inhibition [35]: 10.2%; inhibition [36]: -7.52%; inhibition [37]: 12.5%; inhibition [38]: -5.93%; inhibition [39]: 5.99%
CS(=O)(=O)c1cc(C2(NC(=O)c3cncc4c3cnn4-c3ccc(F)cc3)CC2)ccn1 [BI 639667]	68%	89%	74%	91%	100%	100%	100%	100%	58%	100%	100%	100%	100%	100%	100%	99%	34%	97%	100%	100%	residual activity [21]: 100%; residual activity [22]: 100%; residual activity [23]: 100%; residual activity [24]: 70%; residual activity [25]: 85%; residual activity [26]: 77%; residual activity [27]: 100%; residual activity [28]: 100%; residual activity [29]: 94%; residual activity [30]: 62%; residual activity [31]: 77%; residual activity [32]: 97%; residual activity [33]: 100%; residual activity [34]: 100%; inhibition [35]: 12.9%; inhibition [36]: -2.94%; inhibition [37]: 11.2%; inhibition [38]: -7.76%; inhibition [39]: 3.92%
